Laboratory results from patent US5071859A, “N-substituted azaheterocyclic carboxylic acids and pharmaceutical uses” (priority 1988, dated 1991).
Where a name gives a salt, the structure may show the parent alone.

What was measured:
[^3 H]-GABA uptake = in vitro inhibition of [^3 H]-GABA uptake (method of Fjalland); format: biochemical, Male Wistar rat (cortical tissue); settings: rat cortical tissue homogenate; 60 min at 30° C.; pH 7.5; ligand 0.2 nM
Experimental: Male Wistar rat cortical tissue was gently homogenized by hand using a glass/PTFE homogenizer in 10 volumes of 0.32 M sucrose. Incubation was performed in a 40 mM tris HCl buffer (pH 7.5 at 30° C.) containing […], […], 4 mM MgSO4, 2.3 mM CaCl2 and 10 mM glucose, for 60 min. at 30° C. Ligand concentration was 0.2 nM.

[1] = test system: GABA uptake from the synaptic cleft into presynaptic nerve terminals and glial cells; settings: cited from earlier work
GABA uptake = settings: oral; cited from earlier work

| SMILES | IC50 ([^3 H]-GABA uptake) | orally active inhibitors of GABA uptake (GABA uptake) | other results |
| --- | --- | --- | --- |
| O=C(O)[C@@H]1CCCN(CCOC=C(c2ccccc2)c2ccccc2)C1 [Example 2, (R)-1-[2-[[2,2-Diphenylethenyl]oxy]ethyl]-3-piperidine carboxylic acid hydrochloride] | 0.104 µM |  |  |
| O=C(O)C1CCCNC1 (stereo not shown) [nipecotic acid, piperidine-3-carboxylic acid] |  |  | inhibitor of GABA uptake from the synaptic cleft [1]: potent inhibitor of GABA uptake |
| O=C(O)C1CCCN(CCC=C(c2ccccc2)c2ccccc2)C1 (stereo not shown) [SK&F 89976A, N-(4,4-diphenyl-3-butenyl)nipecotic acid] |  | orally active inhibitors of GABA uptake |  |
| O=C(O)CC1CCN(CCC=C(c2ccccc2)c2ccccc2)C1 (stereo not drawn) [SK&F 100561, N-(4,4-diphenyl-3-butenyl)homo-β-proline] |  | orally active inhibitors of GABA uptake |  |
| O=C(O)C1=CCCN(CCC=C(c2ccccc2)c2ccccc2)C1 [SK&F 100330A, N-(4,4-diphenyl-3-butenyl)guvacine] |  | orally active inhibitors of GABA uptake |  |
| Cc1ccsc1C(=COCCN1CCC[C@@H](C(=O)O)C1)c1sccc1C [Example 12, (R)-1-[2-[[2,2-bis(3-Methyl-2-thienyl)ethenyl]oxy]ethyl]-3-piperidine carboxylic acid] | 0.008 µM |  |  |
| Cc1ccccc1C(=COCCN1CCC=C(C(=O)O)C1)c1ccccc1C [Example 13, 1-[2-[[2,2-bis(2-Methylphenyl)ethenyl]oxy]ethyl]-1,2,5,6-tetrahydro-3-pyridine carboxylic acid hydrochloride] | 0.026 µM |  |  |
| O=C(O)C1CCCN(CCC=C(c2ccccc2)c2cccs2)C1 (stereo not shown) [SK&F 100604J, N-(4-phenyl-4-(2-thienyl)-3-butenyl)nipecotic acid] |  | orally active inhibitors of GABA uptake |  |

More lines, main results first:

| IC50 ([^3 H]-GABA uptake) | SMILES | orally active inhibitors of GABA uptake (GABA uptake) | other results |
| --- | --- | --- | --- |
| 0.047 µM | CCc1ccccc1C(=COCCN1CCC=C(C(=O)O)C1)c1ccccc1CC [Example 23, 1-[2-[[2,2-bis(2-Ethylphenyl)ethenyl]oxy]ethyl]-1,2,5,6-tetrahydro-3-pyridine carboxylic acid hydrochloride] |  |  |
| 0.127 µM | O=C(O)[C@@H]1CCCN(CCOCC(c2ccccc2)c2ccccc2)C1 [Example 33, (R)-1-[2-[[2,2-Diphenylethyl]oxy]ethyl]-3-piperidine carboxylic acid] |  |  |
| 0.03 µM | Cc1ccccc1C(=COCCN1CCC[C@@H](C(=O)O)C1)c1ccc(F)cc1C [Example 14, (R)-1-[2-[[2-(4-Fluoro-2-methylphenyl)-2-(2-methylphenyl)ethenyl]oxy]ethyl]-3-piperidine carboxylic acid hydrochloride] |  |  |
| 0.015 µM | Cc1ccccc1C(=COCCN1CCC[C@@H](C(=O)O)C1)c1ccccc1C [Example 17, (R)-1-[2-[[2,2-bis(2-Methylphenyl)ethenyl]oxy]ethyl]-3-piperidine carboxylic acid hydrochloride] |  |  |
| 0.012 µM | Cc1ccccc1C(=COCCN1CCC[C@@H](C(=O)O)C1)c1ccccc1Cl [Example 30, (R)-1-[2-[[2-(2-Chlorophenyl)-2-(2-methylphenyl)ethenyl]oxy]ethyl]-3-piperidine carboxylic acid hydrochloride] |  |  |
